Results taken from patent US5334456A, “Free-radical curable compositions” (priority 1992, dated 1994).
Where a name gives a salt, the structure may show the parent alone. Read-outs that look alike come from different tables or passages of the source.

Tests used:
[1] = Inhalation Kill (animals); assay type: in vivo; conditions: Table XVI
Protocol: Toxicity tests were performed on commercially available (meth) acrylate oligomers and diluents and on commercially available vinyl ether and maleate diluents.

[2] = not given; remark: listed apart in the source
[3] = Viscosity (Brookfield viscometer); assay type: physicochemical; conditions: 25° C., product as prepared
Protocol: The viscosity, expressed in pascal seconds (Pa s), was measured using a Brookfield Model RVTD viscometer operated in accordance with the instructions provided therewith. The temperature of each sample tested was 25° C.
The viscosity of the saturated ester oligomers having maleate end groups was determined utilizing a Brookfield RTV viscometer.

SMILES: C=CC(=O)OCCCCCCOC(=O)C=C [1,6-hexanediol diacrylate]
- Inhalation Kill [1]: 0 of 6
- Eye Irritation (Table XVI, max. = 10): 2
- Skin Irritation ([2]; Table XVI, max. = 8): 3

SMILES: C=CC(=O)OCCO [2-hydroxyethyl acrylate]
- Inhalation Kill [1]: 1 of 6
- Eye Irritation (Table XVI, max. = 10): 9
- Skin Irritation ([2]; Table XVI, max. = 8): 6

SMILES: C=CC(=O)OCCOc1ccccc1 [2-phenoxyethyl acrylate]
- Inhalation Kill [1]: 0 of 6
- Eye Irritation (Table XVI, max. = 10): 1
- Skin Irritation ([2]; Table XVI, max. = 8): 3

SMILES: CCOC(=O)/C=C\C(=O)OCC [Diethyl maleate]
- Eye Irritation (Table XVI, max. = 10): mild
- Skin Irritation ([2]; Table XVI, max. = 8): mild

SMILES: C=CC(=O)OCCOCCOC(=O)C=C [Diethyleneglycol diacrylate]
- Inhalation Kill [1]: 0 of 6
- Eye Irritation (Table XVI, max. = 10): 9
- Skin Irritation ([2]; Table XVI, max. = 8): 5

SMILES: COC(=O)/C=C\C(=O)OC [Dimethyl maleate]
- Eye Irritation (in vivo): moderate
- Skin Irritation ([2]; in vivo): 5.47

SMILES: CCCCOC(=O)/C=C\C(=O)OCCCC [Dubutyl maleate]
- Skin Irritation ([2]; Table XVI, max. = 8): mild

SMILES: C=COCCCCOC(=O)/C=C\C(=O)OCC [Example 1, 4-vinyloxybutyl ethyl maleate]
- viscosity [3]: about 36 cP
- viscosity ([3]; listed as Component 3): 36 cP

SMILES: C=CC(=O)OCC(C)(C)COC(=O)C=C [Neopentylglycol diacrylate]
- Inhalation Kill [1]: 1 of 6
- Eye Irritation (Table XVI, max. = 10): 8
- Skin Irritation ([2]; Table XVI, max. = 8): 5

SMILES: C=CC(=O)OCC(CO)(COC(=O)C=C)COC(=O)C=C [Pentaerythritol triacrylate]
- Inhalation Kill [1]: 0 of 6
- Eye Irritation (Table XVI, max. = 10): 10
- Skin Irritation ([2]; Table XVI, max. = 8): 2
